Entries after “also recorded” stand apart in the source; their conditions may differ.
Legend:
PC-12 cells = test: Neurite outgrowth in PC-12 cells; type: cell-based
Method: PC-12 cells were maintained at 37° C., 5% CO2, in Dulbecco's modified Eagle medium (DMEM) supplemented with 10% heat-inactivated horse serum and 5% heat-inactivated fetal bovine serum. For differentiation in NGF, cells were plated at 1×10^5 in 35 mm culture wells coated with rat tail collagen at 5 μg/cm^2, and allowed to attach before replacing the media with DBMEM supplemented with 2% fetal horse serum, 1% fetal calf serum, NGF and/or FK506 or rapamycin. For quantitation of neurite outgrowth, random photographs were made (3-4 per well), and process bearing neurons were counted with processes being greater than 5 μm. Experimental conditions were unknown by the photographer and cell counter. Four separate experiments were performed in duplicate for each data point presented. Neurites were identified and counted from approximately 100 cells per photograph. Thus, neurites from 1200-1600 cells were counted per data point.

dorsal root ganglia = test: Neurite/axon outgrowth in dorsal root ganglia explant cultures; type: cell-based, rat; conditions: for time at which growth begins to plateau / time by which some outgrowth is evident: all concentrations
Method: Stage E16 embryos were removed from pregnant Sprague-Dawley rats and the dorsal root ganglia dissected. Whole ganglia explants were cultured in collagencoated 35 mm dishes (Falcon) using N2 medium (Dulbecco's Modified Eagle medium and Ham's F12 medium mixed 1:1 and supplemented with progesterone, selenium, insulin, putrescine, glucose, and penicillin-streptomycin) at 37° C. in a 15% CO2 environment. Sensory ganglia were treated with various concentrations of NGF and/or FK506 or rapamycin or anti-NGF antibody. Ganglia were observed every 2-3 days under phase-contrasting using an Olympus IMT-2 inverted microscope, and measurements of axon length were made. The axonal field of each ganglion was divided into four quadrants, and the length of the longest axons in each quadrant was measured in microns using an eye-piece micrometer. The average of these measurements was taken as the axon length for the ganglion.

FKBP [1] = biological target: T1, FKBP (Rattus norvegicus, UniProt Q62658); test: [3H]FK506 autoradiography on dorsal root ganglia cultures; type: binding; conditions: 1 μM unlabeled FK506, 1 nM [3H]FK506
T1 sequence (Q62658 whole entry): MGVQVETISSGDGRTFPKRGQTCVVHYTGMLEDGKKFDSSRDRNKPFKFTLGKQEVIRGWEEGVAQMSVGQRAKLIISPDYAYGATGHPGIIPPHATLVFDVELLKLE
Method: For [^3 H]FK506 autoradiography, dorsal root ganglia cultures were grown on chamber slides coated with collagen, 5 μg/cm^2. Cultures were fixed on the slide with ice cold 4.0% freshly depolymerized paraformaldehyde in 0.1 M sodium phosphate buffer, pH 7.4, for 1 hr, then washed two times with phosphate buffered saline. Fixed cultures were labeled with [^3 H]FK506 by pre-incubating the slides in a buffer consisting of 50 mM Hepes, 2 mg/ml bovine serum albumin, 0.02% Tween-20 pH 7.4. This was followed by incubation in the same assay buffer containing 1 nM [^3 H]FK506. Non-specific binding was determined by adding 1 μM unlabeled FK506. The slides were then rinsed 4×5 min prior to drying, and juxtaposed to tritium-sensitive film for 10 days.

FKBP [2] = biological target: T1, FKBP; test: [3H]FK506 binding to PC-12 cell homogenates; set-up: endogenous in cells; host or cells: PC-12 cells; conditions: for [3H]FK506 binding following NGF treatment: PC-12 cells, NGF 50 ng/ml
Method: Levels of FKBP in PC-12 cells were obtained from Scatchard analysis of [^3 H]FK506 binding curves. Cultures were scraped from the culture wells and homogenized in 10 volumes of 50 mM Tris-HCl, pH 7.4, 1 mM EDTA, 100 μg/ml phenylmethylsulfonylfluoride and centrifuged at 40,000×g for 20 min at 4° C. Protein was determined by the Coomassie blue dye binding assay using bovine serum albumin as a standard. Binding of 250 pM [^3 H]dihydro FK506 (86.5 Ci/mmol, DuPont/NEN) was assessed for samples containing 5 μg soluble protein in a final volume of 0.4 ml assay buffer containing 50 mM Tris-HCl, pH 7.4, 2 mg/ml BSA and varying concentrations of unlabeled FK506. After 60 min incubation at 25° C., 0.35 ml was layered over a 0.8 ml column of LH-20 Sephadex (Pharmacia LKB), pre-equilibrated with assay buffer. The column was further washed with 0.4 ml of assay buffer, the eluates collected, mixed with Formula 963 (DuPont/NEN) and counted in a Beckman scintillation counter. Specific binding was determined by subtracting binding obtained in the presence of 1 μM unlabeled FK506 from total [^3 H]FK506 bound.

FKBP [3] = biological target: T1, FKBP; test: [3H]FK506 binding in rat tissues (Table 1A); set-up: from tissue; host or cells: rat sciatic nerve, cerebral cortex, thymus, spleen; neonatal rat forebrain and growth cones
Source text: If FKBP were physiologically associated with neuronal process extension in the actions of GAP-43, then one might anticipate substantial levels of FKBP in peripheral nerve. Accordingly, we measured [^3 H]FK-506 binding in rat sciatic nerve, as well as in growth cones isolated from 2-day-old rat pups, and compared values with those of the cerebral cortex and several peripheral tissues.
For axon transport experiments, classic ligature techniques were used following the methods of Tetzlaff et al. One week following sciatic nerve crush two collection ligatures (510 sutures) were placed on the nerve approximately 10 mm apart with the distal most ligature positioned 10 mm proximal to the initial crush sight. Six hours later, 5-3 mm segments of the nerve were collected from regions proximal to, distal to, and between the collection ligatures as illustrated in FIG. 5. The nerve segments were prepared for [^3 H]FK-506 binding assays by homogenizing in 10 volumes of 50 mM Tris-HCl, pH 7.4. Homogenates were centrifuged at 15,000×g for 20 min at 4° C., and supernatants were collected and assayed for total protein concentration using the Coomassie blue dye binding assay (Pearce). [^3 H]FK-506 binding was carried out as described (4) on aliquots containing 2 ug of total soluble protein in a final volume of 0.4 ml assay buffer consisting of 50 mM Tris-HCl, pH 7.4, 2 mg/ml bovine serum albumin, 250 pM [^3 H]FK-506, and varying concentrations of unlabeled FK-506. Following incubation at 25° C. for 60 min, 0.35 ml was layered over a 0.8 ml column of LH-20 Sephadex (Pharmacia LKB) and washed with 0.4 ml of assay buffer. The eluates were collected and counted in a scintillation counter.

C=CC[C@@H]1/C=C(\C)C[C@H](C)C[C@H](OC)[C@H]2O[C@@](O)(C(=O)C(=O)N3CCCC[C@H]3C(=O)O[C@H](/C(C)=C/[C@@H]3CC[C@@H](O)[C@H](OC)C3)[C@H](C)[C@@H](O)CC1=O)[C@H](C)C[C@@H]2OC [FK506]
kind of effect on neuritic processes (PC-12 cells): primarily increases neurite length | reduction of the NGF concentration needed to elicit maximal outgrowth (PC-12 cells; FK506 100 nM): 20-50 fold | effect on NGF-stimulated neurite outgrowth (PC-12 cells; FK506 100 nM, 48 hr): markedly augments the effect of NGF | additional neurite outgrowth at maximal NGF (PC-12 cells; FK506 100 nM, NGF 10-100 ng/ml): fails to produce additional neurite outgrowth | neurite outgrowth in the absence of NGF (PC-12 cells; no NGF): fails to elicit neurite outgrowth; also recorded: fails to stimulate neurite outgrowth | EC50 (PC-12 cells; with NGF 1 ng/ml, 48 hr, read-out: half maximal effects on neurite outgrowth): ~100 pM | FK506 concentration eliciting the same maximal outgrowth as 50 ng/ml NGF (PC-12 cells; with submaximal NGF 1 ng/ml, 48 hr): 1 nM | neurite outgrowth compared with no added growth factor (dorsal root ganglia; FK506 1 pM): greater than in its absence | neurite/axon outgrowth (dorsal root ganglia; FK506 1 μM alone): produces a similar neurotrophic effect; also recorded: abundant axon outgrowth | neurite outgrowth (dorsal root ganglia; FK506 0.1 and 10 nM): Progressively greater outgrowth | concentration required for maximal outgrowth (dorsal root ganglia; FK506 alone): 1 µM | lowest concentration producing a noticeable increase in growth (dorsal root ganglia; FK506 alone): 1 nM | lowest concentration producing detectable augmentation of outgrowth (dorsal root ganglia; FK506 alone): 1 pM | time at which growth begins to plateau (dorsal root ganglia): 5 to 6 days | time by which some outgrowth is evident (dorsal root ganglia): ≤ 1 days | displacement of [3H]FK506 autoradiographic grains (FKBP [1]): autoradiographic grains are abolished | IC50 (FKBP [2]; untreated PC-12 cell homogenates, 250 pM radioligand, read-out: Fifty percent inhibition of [3H]FK506 binding): 1000 to 2000 pM

[3H]CC([3H])C[C@@H]1/C=C(\C)C[C@H](C)C[C@H](OC)[C@H]2O[C@@](O)(C(=O)C(=O)N3CCCC[C@H]3C(=O)O[C@H](/C(C)=C/[C@@H]3CC[C@@H](O)[C@H](OC)C3)[C@H](C)[C@@H](O)CC1=O)[C@H](C)C[C@@H]2OC (some centres unmarked) [[^3 H]FK506]
[3H]FK506 binding Bmax (FKBP [3]; adult rat, cerebral cortex): 48.0 pmol/mg protein | [3H]FK506 binding Bmax (FKBP [3]; adult rat, sciatic nerve): 22.1 pmol/mg protein | [3H]FK506 binding Bmax (FKBP [3]; adult rat, spleen): 8.0 pmol/mg protein | [3H]FK506 binding Bmax (FKBP [3]; adult rat, thymus): 9.5 pmol/mg protein | [3H]FK506 binding Bmax (FKBP [3]; neonatal rat, forebrain): 25.5 pmol/mg protein | [3H]FK506 binding Bmax (FKBP [3]; neonatal rat, growth cones): 10.2 pmol/mg protein

CO[C@H]1C[C@@H]2CC[C@@H](C)[C@@](O)(O2)C(=O)C(=O)N2CCCC[C@H]2C(=O)O[C@H]([C@H](C)C[C@@H]2CC[C@@H](O)[C@H](OC)C2)CC(=O)[C@H](C)/C=C(\C)[C@@H](O)[C@@H](OC)C(=O)[C@H](C)C[C@H](C)/C=C/C=C/C=C/1C [rapamycin]
kind of effect on neuritic processes (PC-12 cells): augments the number of processes as well as their length | combined effect of FK506 and rapamycin (PC-12 cells; FK506 plus rapamycin): additive | neurite outgrowth (PC-12 cells; rapamycin 1 nM): major neurite outgrowth | blockade of the neurotrophic actions of FK506 (PC-12 cells; rapamycin 1 μM): fails to block the neurotrophic actions of FK506 | blockade of FK506 effect on outgrowth (dorsal root ganglia; rapamycin 1 μM with FK506 1 μM): completely blocks the effects of FK506; also recorded: completely inhibits axon outgrowth in the presence of FK506

nerve growth factor [NGF]
concentration for maximal augmentation of neurite outgrowth (PC-12 cells; NGF alone): 50 to 100 ng/mL | NGF concentration for half maximal outgrowth (PC-12 cells; in the absence of FK506): 5 ng/mL | neurite/axon outgrowth (dorsal root ganglia; NGF 100 ng/ml): markedly increases the number and length of ganglia processes; also recorded: abundant axon outgrowth | time at which growth begins to plateau (dorsal root ganglia): 5 to 6 days | time by which some outgrowth is evident (dorsal root ganglia): ≤ 1 days | [3H]FK506 binding following NGF treatment (FKBP [2]): increases markedly | [3H]FK506 binding following NGF treatment (FKBP [2]; by 20 hr): triples

Source: patent publication US6080753A, “Stimulating nerve growth with immunophilins” (Johns Hopkins University School of Medicine, priority 1997, dated 2000)
